# System: mouse pulmonary fibrosis model
# Test: Mouse pulmonary fibrosis model and pharmacodynamics test of ACT001
# Type: in vivo, Kunming mice (male)
# Protocol: a) Preparation of ACT001 solution: 1 g ACT001 powder was weighed and dissolved in 100 mL 0.9% normal saline solution to prepare 10 mg/mL solution. When it was fully dissolved, it was filter sterilized with 0.22 μm filter for use, and was freshly prepared each time before use. The preparation and the use of the solution should be performed in a sterile biosafety cabinet.
# b) Preparation of ethyl viologen hydrate solution: 2 g ethyl viologen hydrate was weighed and dissolved in 100 mL 0.9% normal saline to prepare 20 mg/mL solution. When it was fully dissolved, it was filter sterilized with 0.22 μm filter for use, and was freshly prepared each time before each use. The preparation and the use of the solution should be performed in a sterile biosafety cabinet.
# Randomly divide 36 mice into three groups: normal group, control group (pulmonary fibrosis model group), ACT001 group (administering ACT001 after modeling), and 12 animals per group. Conduct a one-off intragastric administration of 0.15 mL of 0.9% normal saline to each animal in the normal group; and conduct a one-off intragastric administration of 0.15 mL of the ethyl viologen hydrate solution to each animal in the control group and ACT001 group.
# 3 weeks after modeling, drug treatment was given to the mice. Conduct an intragastric administration of 0.1 mL of 0.9% normal saline to each animal in the normal and control groups, and conduct an intragastric administration of 0.1 mL ACT001 aqueous solution to each animal in the ACT001 group. Once every 2 days.
# At the third week after modeling, the second week after drug administration, and the third week after drug administration, four mice were each taken from the normal group, control group and ACT001 group, sacrificed by breaking their necks, their lung tissues were sampled, after fixing the tissues with 10% formalin for two days, the fixing solution on the surface of the lung tissues was washed away with running water, the lung tissues were then dehydrated with a pathological tissue dehydration machine, the tissues were embed in paraffin, the embedded tissues were sectioned, H.E. staining was conducted and slides were covered before observing the changes of the lung tissues under microscope.
# [1] = after 3 weeks of drug administration
# [2] = second week after ACT001 administration, intragastric 0.1 mL once every 2 days
smiles,measurement,setting,value
"CC1=C2CC[C@@](C)(O)C2[C@H]2OC(=O)[C@@H](CN(C)C)[C@@H]2CC1 (stereo partly shown) [ACT001, dimethylamino micheliolide]",difference in pulmonary coefficient versus the normal group,[1],no significant difference
same,pulmonary coefficient lower relative to the control group,[1],0.47%
same,average lung weight,"after 3 weeks of drug administration, normal group 0.4012 g, control group 0.5983 g",0.4034 g
same,average of pulmonary coefficient (lung wet mass/body weight*100%),"after 3 weeks of drug administration, normal group 0.81%, control group 1.32%",0.85%
same,average body weight,"after 3 weeks of drug administration, normal group 49.2352 g, control group 45.4575 g",47.576 g
same,blood supply in the lung tissue (lung tissue morphology under stereoscopic microscope),"second week after ACT001 administration, intragastric 0.1 mL of 10 mg/mL solution once every 2 days, started 3 weeks after modeling, compared with control group",significant improvement of blood supply in the lung tissue
same,"alveolar structures (lung tissue section, H.E. staining)",[2],restored to normal
same,"deposition in the lung interstitials (lung tissue section, H.E. staining)",[2],significantly reduced
same,"fibrosis degree of the lung (lung tissue section, H.E. staining)","second week after ACT001 administration, intragastric 0.1 mL once every 2 days, compared with control group",significant improvement for the fibrosis degree of the lung
same,level of pulmonary fibrosis (lung tissue morphology and tissue section),"third week after ACT001 administration, compared with control group",significantly reduced

# Reference: US10220019B2, “Method for treating pulmonary fibrosis comprising application of dimethylamino micheliolide” (Tianjin International Joint Academy of Biotechnology & …, priority 2016, dated 2019)
